Measurements reported in ChEMBL document CHEMBL1136085, “Structure-activity study of novel tricyclic benzazepine arginine vasopressin antagonists” (Bioorg Med Chem Lett, 2003).

Columns and labels:
Vasopressin V2 receptor = Vasopressin V2 receptor (Rattus norvegicus, UniProt Q00788); assay: Inhibition of [3H]AVP binding to Dawley rat kidney medullary vasopressin V2 receptor.
[1] = molecular target: Vasopressin V2 receptor (Rattus norvegicus) (UniProt Q00788); assay: Compound was tested for the inhibition of [3H]AVP binding to Dawley rat kidney medullary Vasopressin V2 receptor; conditions: concentration not given here
Vasopressin V1a receptor [2] = molecular target: T1, Vasopressin V1a receptor (Rattus norvegicus, UniProt P30560); assay: Compound was tested for the inhibition of [3H]AVP binding to Dawley […]
[3] = molecular target: Vasopressin V1a receptor (Rattus norvegicus) (UniProt P30560); assay: Compound was tested for the inhibition of [3H]AVP binding to Dawley rat hepatic Vasopressin V1a receptor; conditions: concentration not given here
Rattus norvegicus [4] = assay: Aquaretic effect was measured by the amount of urine collected after 4 hr at a dose of 10 mg/kg ip in 2 Dawley rats; type: functional; conditions: route intraperitoneal
Vasopressin V1a receptor [5] = molecular target: T1, Vasopressin V1a receptor; assay: Inhibition of [3H]AVP binding to Dawley rat hepatic vasopressin V1a receptor.
Rattus norvegicus [6] = assay: Aquaretic effect was measured by the amount of urine collected after 4 hr at a dose of 30 mg/kg ip in 6 Dawley rats; type: functional; conditions: route intraperitoneal

T1 sequence (P30560 whole entry): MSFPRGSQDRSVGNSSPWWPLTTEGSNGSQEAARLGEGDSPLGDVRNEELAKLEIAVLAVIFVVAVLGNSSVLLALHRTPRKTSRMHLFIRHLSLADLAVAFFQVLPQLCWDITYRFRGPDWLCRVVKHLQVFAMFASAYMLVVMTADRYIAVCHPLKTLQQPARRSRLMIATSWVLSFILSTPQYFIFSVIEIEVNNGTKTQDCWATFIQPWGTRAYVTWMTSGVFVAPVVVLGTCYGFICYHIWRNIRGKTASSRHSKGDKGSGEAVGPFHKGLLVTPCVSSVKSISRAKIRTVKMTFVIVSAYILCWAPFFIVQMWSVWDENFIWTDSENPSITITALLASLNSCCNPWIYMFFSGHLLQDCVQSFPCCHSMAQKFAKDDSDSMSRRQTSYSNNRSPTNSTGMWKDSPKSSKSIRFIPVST
Chain of Vasopressin V2 receptor (Q00788 whole entry): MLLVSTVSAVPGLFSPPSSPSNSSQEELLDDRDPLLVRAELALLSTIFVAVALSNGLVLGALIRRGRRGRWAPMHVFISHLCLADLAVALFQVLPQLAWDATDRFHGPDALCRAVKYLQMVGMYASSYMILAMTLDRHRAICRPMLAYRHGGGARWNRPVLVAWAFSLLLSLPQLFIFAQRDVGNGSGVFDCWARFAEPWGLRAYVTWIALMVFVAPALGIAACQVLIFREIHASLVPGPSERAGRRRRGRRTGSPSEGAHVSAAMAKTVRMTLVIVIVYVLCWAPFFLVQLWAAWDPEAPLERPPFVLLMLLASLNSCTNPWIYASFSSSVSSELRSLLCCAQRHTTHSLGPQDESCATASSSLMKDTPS
Chain of Vasopressin V1a receptor (Rattus norvegicus) (P30560 whole entry, looked up): as the sequence (P30560 whole entry) above
Chain of Vasopressin V2 receptor (Rattus norvegicus) (Q00788 whole entry): as the sequence (Q00788 whole entry) above

SMILES	IC50 (Vasopressin V2 receptor) [nM]	IC50 (Vasopressin V1a receptor [5]) [nM]	also measured
Cc1ccccc1C(=O)Nc1ccc(C(=O)N2Cc3ccccc3CCc3ccccc32)cc1	50000	–	inhibition [1]: 80%; IC50 (Vasopressin V1a receptor [2]): 50000 nM; inhibition [3]: 60%
Cc1ccccc1C(=O)Nc1ccc(C(=O)N2Cc3ccccc3Nc3ccccc32)cc1	–	–	Urine volume (Rattus norvegicus [6]): 7.4 ml 4hr-1
O=C(Nc1ccc(C(=O)N2Cc3cccn3Cc3ccccc32)cc1)c1ccccc1O	540	–	–
O=C(Nc1ccc(C(=O)N2Cc3cccn3Cc3ccccc32)cc1)c1ccccc1Cl	–	–	Urine volume (Rattus norvegicus [4]): 12.4 ml 4hr-1
Cc1ccc(F)cc1C(=O)Nc1ccc(C(=O)N2Cc3cccn3Cc3ccccc32)c(Cl)c1 [LIXIVAPTAN]	–	–	Urine volume (Rattus norvegicus [4]): 22 ml 4hr-1
O=C(Nc1ccc(C(=O)N2Cc3cccn3Cc3ccccc32)cc1)c1ccc(F)cc1Cl	4	7	–

The remaining compounds from weak to strong by IC50 (Vasopressin V2 receptor), led by results:

IC50 (Vasopressin V2 receptor) [nM]	IC50 (Vasopressin V1a receptor [5]) [nM]	SMILES	also measured
1700	1500	Cc1ccccc1C(=O)Nc1ccc(C(=O)N2Cc3ccccc3Oc3ccccc32)cc1	–
860	2500	Cc1ccccc1C(=O)Nc1ccc(C(=O)N2c3ccccc3CCc3ccccc32)cc1	–
13	240	Cc1cccc(C(=O)Nc2ccc(C(=O)N3Cc4cccn4Cc4ccccc43)cc2)c1C	–
7	2	O=C(Nc1ccc(C(=O)N2Cc3cccn3Cc3ccccc32)cc1)c1ccccc1Br	–
1.5	–	Cc1ccc(F)cc1C(=O)Nc1ccc(C(=O)N2Cc3cccn3Cc3ccccc32)cc1	Urine volume (Rattus norvegicus [4]): 21.8 ml 4hr-1
